Source: US20240308988A1, “Method For Controlling Diamide Resistant Pests and Compounds Therefor” (priority 2021, published 2024)

Legend:
[1] = tested on: Plutella xylostella (Diamond back moth) ryanodine receptor, containing the G4946E resistance mutation; test: In vitro calcium fluorescence assay (Fluo-8 NW, FDSS) in human embryonic kidney cells expressing the ryanodine receptor; format: cell-based; settings: table; EC50 (compound)/EC50 (cyantraniliprole); G4946E RyR in HEK cells
Method in brief: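 Fluo-8 NW-loaded cells, compounds at 10 rates, intracellular calcium fluorescence read on FDSS. EC50 from dose-response curves, normalized to in-assay cyantraniliprole as REC50 = EC50(compound)/EC50(cyantraniliprole).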

Row | SMILES | melting point [°C] | REC50 (Compound of the invention) [1]
1 | COc1cc(C(=O)Nc2c(C)cc(Br)cc2C(N)=O)n(-c2ncccc2Cl)n1 [Compound P45, N-(4-bromo-2-carbamoyl-6-methyl-phenyl)-2-(3-chloro-2-pyridyl)-5-methoxy-pyrazole-3-carboxamide] | 210 to 215 | 0.24
2 | COc1cc(C(=O)Nc2c(Cl)cc(Br)cc2C(N)=O)n(-c2ncccc2Cl)n1 [Compound P47, N-(4-bromo-2-carbamoyl-6-chloro-phenyl)-2-(3-chloro-2-pyridyl)-5-methoxy-pyrazole-3-carboxamide] | 160 to 165 | 0.61
